The results in this text go back to publication PMC6934184, “Selective DNA-PKcs inhibition extends the therapeutic index of localized radiotherapy and chemotherapy” (The Journal of Clinical Investigation, 2019).

For the test, the target named is T1, PRKX (Homo sapiens, UniProt P51817).
T1 construct: purchased Thermo Fisher Scientific (Life Technologies) SelectScreen
Kind of test: SelectScreen Z'LYTE. It counts as biochemical. The method, boiled down: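 NU5455 was profiled across the SelectScreen Broad panel of kinase activity and binding assays. Z'LYTE reactions such as CSF1R ran at apparent Km ATP, while the Adapta CAMK1 assay used ATP listed as 10. Values are given as percent.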

Usually inhibition stands for the change of the read-out against control, counted positive when it falls.

T1 sequence (P51817 whole entry): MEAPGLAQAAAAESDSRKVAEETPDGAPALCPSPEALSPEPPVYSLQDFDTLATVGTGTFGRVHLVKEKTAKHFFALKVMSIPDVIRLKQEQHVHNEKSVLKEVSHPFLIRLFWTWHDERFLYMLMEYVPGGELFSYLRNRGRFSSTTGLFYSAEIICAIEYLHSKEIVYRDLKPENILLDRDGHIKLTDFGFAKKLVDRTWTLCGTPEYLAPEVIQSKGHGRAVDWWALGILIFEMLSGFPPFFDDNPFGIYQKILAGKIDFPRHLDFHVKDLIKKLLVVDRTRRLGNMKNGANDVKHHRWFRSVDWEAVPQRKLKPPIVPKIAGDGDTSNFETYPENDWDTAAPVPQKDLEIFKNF

`CN(C(=O)CN1CCOCC1)c1ccc2sc3c(-c4cccc5c(=O)cc(N6CC7CCC(C6)O7)oc45)cccc3c2c1` [NU5455] showed an inhibition at 1 µM of 12.5%.
